BindingDB's records for doi:10.1016/j.bioorg.2016.10.003 (Indian Institute of Technology (Banaras Hindu University), 2016)

Molecular target: T1, Prostaglandin G/H synthase 1 (Ovis aries, UniProt P05979)
T1 sequence (P05979 whole entry): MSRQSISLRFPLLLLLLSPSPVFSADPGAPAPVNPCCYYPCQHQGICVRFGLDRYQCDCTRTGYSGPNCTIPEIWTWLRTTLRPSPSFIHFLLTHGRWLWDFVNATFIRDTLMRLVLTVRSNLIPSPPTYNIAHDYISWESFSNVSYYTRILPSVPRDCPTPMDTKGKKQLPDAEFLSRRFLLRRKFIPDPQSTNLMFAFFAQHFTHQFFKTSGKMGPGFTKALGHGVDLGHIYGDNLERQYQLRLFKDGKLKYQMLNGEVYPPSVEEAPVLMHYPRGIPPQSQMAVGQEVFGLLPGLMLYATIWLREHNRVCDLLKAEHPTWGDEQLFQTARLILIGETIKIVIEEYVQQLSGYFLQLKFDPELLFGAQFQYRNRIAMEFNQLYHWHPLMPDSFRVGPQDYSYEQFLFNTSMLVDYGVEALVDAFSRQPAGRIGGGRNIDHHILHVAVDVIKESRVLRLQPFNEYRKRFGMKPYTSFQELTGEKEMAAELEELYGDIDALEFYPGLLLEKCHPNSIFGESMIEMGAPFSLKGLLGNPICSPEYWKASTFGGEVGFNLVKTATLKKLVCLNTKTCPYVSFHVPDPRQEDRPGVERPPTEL
Experiment: In vitro COX Inhibition Assay
Protocol: The peroxidase activity is assayed colorimetrically by monitoring the appearance of oxidised N,N,N',N'-tetramethyl-p-phenylenediamine (TMPD) at 590 nm.

`O=c1nc(-c2ccccc2)c(-c2ccccc2)nn1Cc1nnc(Nc2ccc(Cl)cc2)o1` [2-((5-(4-Chlorophenylamino)-1,3,4-oxadiazol-2-yl)methyl)-5,6-diphenyl-1,2,4-triazin-3(2H)-one (3d)] and `COc1ccc(Nc2nnc(Cn3nc(-c4ccccc4)c(-c4ccccc4)nc3=O)o2)cc1` [2-((5-(4-Methoxyphenylamino)-1,3,4-oxadiazol-2-yl)methyl)-5,6-diphenyl-1,2,4-triazin-3(2H)-one (3c)] are within 1.5-fold of each other in IC50: 64.5 µM for the first, 60.5 µM for the second.

`O=c1nc(-c2ccccc2)c(-c2ccccc2)nn1Cc1nnc(Nc2ccc([N+](=O)[O-])cc2)s1` [2-((5-(4-Nitrophenylamino)-1,3,4-thiadiazol-2-yl)methyl)-5,6-diphenyl-1,2,4-triazin-3(2H)-one (4e)] and `O=c1nc(-c2ccccc2)c(-c2ccccc2)nn1Cc1nnc(Nc2ccc(Cl)cc2)s1` [2-((5-(4-Chlorophenylamino)-1,3,4-thiadiazol-2-yl)methyl)-5,6-diphenyl-1,2,4-triazin-3(2H)-one (4d)] are within 1.5-fold of each other in IC50: 63.2 µM for the first, 62.2 µM for the second.

`COc1ccc(Nc2nnc(Cn3nc(-c4ccccc4)c(-c4ccccc4)nc3=O)s2)cc1` [2-((5-(4-Methoxyphenylamino)-1,3,4-thiadiazol-2-yl)methyl)-5,6-diphenyl-1,2,4-triazin-3(2H)-one (4c)] and `O=c1nc(-c2ccccc2)c(-c2ccccc2)nn1Cc1nnc(Nc2ccc([N+](=O)[O-])cc2)o1` [2-((5-(4-Nitrophenylamino)-1,3,4-oxadiazol-2-yl)methyl)-5,6-diphenyl-1,2,4-triazin-3(2H)-one (3e)] are within 1.5-fold of each other in IC50: 60.1 µM for the first, 62.4 µM for the second.
